Results on seven compounds are retold here after article PMC11393688, “Design and synthesis of new 1,2,4-oxadiazole/quinazoline-4-one hybrids with antiproliferative activity as multitargeted inhibitors” (Frontiers in Chemistry, 2024).

Structures are written as SMILES.

The subject of series [1] is breast cancer (MCF-7) cell line. In words: Antiproliferative MTT assay, MCF-7. It counts as cell-based. Particulars: Homo sapiens, MCF7, MCF-7 breast cancer cells, read-out: Antiproliferative activity IC50 ± SEM MCF-7. The protocol: (§1) 4.2.1.2. Assay for antiproliferative effect
(§2) To explore the antiproliferative potential of compounds MTT assay was performed according to previously reported procedure using different cell lines to explore the antiproliferative potential of […]
(§3) calculate the total nuclear DNA, a fluorescent dye (propidium iodide, PI) is used which can attach to the DNA, thus offering a quick and precise technique. PI cannot pass through the cell membrane and its signal intensity can be considered as directly proportional to quantity of cellular DNA.
(§4) Cells whose cell membranes are damaged or have changed permeability are counted as dead ones.
(§5) The assay was performed by seeding the cells of different cell lines at a density of 3000-7500 cells/well (in 200µl medium) in culture plates followed by incubation for 24h at 37 °C in humidified 5% CO2/95% air atmospheric conditions. The medium was removed; the compounds were added to the plates at 10 µM concentrations (in 0.1% DMSO) in triplicates, followed by incubation for 48 h. DMSO (0.1%) was used as control. After incubation, medium was removed […]
(§6) 80 °C, the plates were allowed to freeze for 24 h, followed by thawing at 25 °C. […]
(§7) (Polar-Star BMG Tech) was used to record the readings at excitation and emission wavelengths of 530 and 620 nm for each well. The percentage cytotoxicity of compounds was calculated using […]
(§8) Where ATC= Absorbance of treated cells and AC= Absorbance of control. Erlotinib was used as positive control in the assay.
In general terms: Tetrazolium assays rely on reduction of a dye to a coloured formazan, in cell work by metabolically active cells.

Series [2] has as its target EGFR^T790M (Homo sapiens, UniProt P00533, T790M). The series can be described thus: EGFR^T790M inhibitory assay (HTRF KinEASE-TK).
Series [3] has as its system colon cancer (HT-29) cell line. In words: Antiproliferative MTT assay, HT-29. It counts as cell-based. Particulars: Homo sapiens, HT-29 colon cancer cells, read-out: Antiproliferative activity IC50 ± SEM HT-29.
Series [4] can be described thus: Cell viability, MTT test on normal cell line. The conditions noted are these: human, MCF-10A mammary gland epithelial cells (normal cell line), MCF-10A normal cells, 4 days incubation. It counts as cell-based. How it is done:
The human mammary gland epithelial (MCF-10A) normal cell line was used to test the viability of novel compounds 9a-o ([Mahmoud et al., 2022]; [Mekheimer et al., 2022]). After 4 days of incubation on MCF-10A cells, the cell viability of compounds 9a-o was determined using the MTT test.
The human mammary gland epithelial (MCF-10A) normal cell line was used to test the viability of compounds 9a-o ([Mahmoud et al., 2022]; [Mekheimer et al., 2022]). Refer to Supplementary Appendix A (Supplementary Material) for more details.
4.2. Biological evaluation
4.2.1. Cytotoxic activity using MTT Assay and evaluation of IC50
MTT assay was carried out to study the effect of compounds on mammary epithelial cells (MCF-10A). The medium in which cells were propagated contained Dulbecco's modified Eagle's medium (DMEM)/ Ham's F-12 medium (1:1) supplemented with epidermal growth factor (20 ng/mL), hydrocortisone (500 ng/mL), insulin (10 μg/mL), 2 mM glutamine and 10% foetal calf serum.
After every 2-3 days, the cells were passaged using trypsin ethylenediamine tetra acetic acid (EDTA). The cells were seeded at a density of 10^4 cells mL-1 in flat-bottomed culture plates containing 96 wells each. After 24 h, medium was removed from the plates and the compounds in (in 0.1% DMSO) were added (in 200 μL medium to yield a final concentration of 0.1% v/v) to the wells of plates. A single compound was designated with four wells followed by incubation of plates for 96h at 37°C. After incubation, medium was removed completely from the plates followed by addition of MTT (0.4 mg/mL in medium) to each well and subsequent incubation of plates for 3h. MTT (along with the medium) was removed and DMSO (150μL) was added to each well of the culture plates, followed by vertexing and subsequent measurement of absorbance (at 540 nm) using microplate reader. The data are shown as percentage inhibition of proliferation in comparison with controls containing 0.1% DMSO.

Series [5] relates to pancreatic cancer (Panc-1) cell line. In words: Antiproliferative MTT assay, Panc-1. Particulars: Homo sapiens, Panc-1 pancreatic cancer cells, read-out: Antiproliferative activity IC50 ± SEM Panc-1. It counts as cell-based. The protocol:
as §1, §2, §3, §4, §5, §6, §7, §8

The subject of series [6] is four human cancer cell lines (HT-29, Panc-1, A-549, MCF-7). In words: Average antiproliferative activity (GI50) over four cancer cell lines. It counts as cell-based. The conditions noted are these: average IC50 against the four cancer cell lines. How it is done: as §1, §2, §3, §4, §5, §6, §7, §8
Series [7] concerns lung cancer (A-549) cell line. The series can be described thus: Antiproliferative MTT assay, A-549. It counts as cell-based. The conditions noted are these: Homo sapiens, A549, A-549 lung cancer cells, read-out: Antiproliferative activity IC50 ± SEM A-549. How it is done: as §1, §2, §3, §4, §5, §6, §7, §8
The target of series [8] is T1, EGFR (Homo sapiens, UniProt P00533).
T1 construct: amino acids 645–1186; His6 (N); made in house; host or cells: Sf-9 insect cells (baculovirus; pBlueBacHis2B / pFASTBacHTc)
T1 sequence (P00533 669-1210): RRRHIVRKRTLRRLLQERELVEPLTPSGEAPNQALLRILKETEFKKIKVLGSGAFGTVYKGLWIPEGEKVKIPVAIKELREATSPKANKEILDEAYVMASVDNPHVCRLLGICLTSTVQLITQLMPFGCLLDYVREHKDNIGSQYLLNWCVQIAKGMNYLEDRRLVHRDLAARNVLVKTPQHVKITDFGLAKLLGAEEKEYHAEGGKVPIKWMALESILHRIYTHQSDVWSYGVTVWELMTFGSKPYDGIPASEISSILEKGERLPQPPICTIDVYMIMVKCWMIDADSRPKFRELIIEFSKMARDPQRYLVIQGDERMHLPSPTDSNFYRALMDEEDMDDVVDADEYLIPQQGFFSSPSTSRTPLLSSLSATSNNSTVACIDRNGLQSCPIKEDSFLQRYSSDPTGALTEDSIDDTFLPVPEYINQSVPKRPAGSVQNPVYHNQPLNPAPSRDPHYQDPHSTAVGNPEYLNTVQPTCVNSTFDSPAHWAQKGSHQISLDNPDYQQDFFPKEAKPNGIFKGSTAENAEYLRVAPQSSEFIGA
The series can be described thus: EGFR-TK inhibitory assay. It counts as biochemical. Particulars: read-out: EGFR inhibition IC50 ± SEM. The protocol:
4.2.1.3. EGFR inhibitory assay
Sf-9 cells were infected for 72h for protein expression. […]
centrifugation for 20 min.
Histidine-linked proteins were first eluted with 250 and then […]
using wash buffer. Europium-tagged antiphosphotyrosine antibody (75 µL, 400 ng) was added to each well followed by incubation of 1h and then washing of the plates using buffer. The enhancement solution was added to each well and the signal was recorded at excitation and […]
The autophosphorylation percentage inhibition by compounds was calculated using the following equation: […]
(1 picture or pasted object on this page, not shown here)

Series [9] has as its target T2, BRAF^V600E (Homo sapiens, UniProt P15056, V600E).
T2 construct: Mouse full-length GST-tagged BRAFV600E; GST; purchased Invitrogen PV3849
In words: BRAF^V600E kinase inhibitory assay. It counts as biochemical, Mouse. The conditions noted are these: read-out: BRAF^V600E inhibition IC50 ± SEM. The protocol: Refer to Supplementary Appendix A for more details. […]
4.2.1.4. BRAF kinase assay […]
against BRAF. Mouse full-length GST-tagged BRAFV600E (7.5 ng, Invitrogen, PV3849) was pre-incubated with drug (1 µL) and assay dilution buffer (4 µL) for 60 min at 25 °C. In assay dilution buffer, a solution (5 µL) containing MgCl2 (30 mM), ATP (200 µM), recombinant human full length (200 ng) […] N-terminal His-tagged MEK1 (Invitrogen) was added to start the assay, subsequent to incubation for 25 min at 25 °C. The assay was stopped using 5X protein denaturing buffer (LDS) solution (5 µL). To further denature the protein, heat (70° C) was applied for 5 min.
10 µL of each reaction was loaded into the precast plates and electrophoresis was allowed to proceed. After completion of electrophoresis, the front part of the precast gel plate (holding hot ATP) was cut and afterwards cast-off. The dried gel was developed using a phosphor screen. A […]
served as positive control. […]
(FITC) and propidium iodide (PI) staining kit (BD Pharmingen, San Diego, USA). […]
4.3. Statistical analysis
Computerized Prism 5 program was used to statistically analyzed data using one-way ANOVA test followed by Tukey’s as post ANOVA for multiple comparison at P ≤.05. Data were presented

Series [10] concerns various cancer cell lines. Also noted: method as in Hisham et al., 2022; Hisham et al., 2023. The conditions noted are these: ref Hisham et al., 2022, 2023; cited from earlier work.
The target of series [11] is T1, EGFR. Set-up: method as in Okaniwa et al., 2012; Zhang et al., 2013. The conditions noted are these: ref Okaniwa et al., 2012; Zhang et al., 2013; cited from earlier work.
Series [12] deals with wild-type BRAF. Set-up: method as in Okaniwa et al., 2012; Zhang et al., 2013. The conditions noted are these: ref Okaniwa et al., 2012; Zhang et al., 2013; cited from earlier work.
Series [13] relates to BRAF^V600E. Set-up: method as in Hisham et al., 2022; Hisham et al., 2023. Particulars: ref Hisham et al., 2022, 2023, read-out: IC50 against BRAF^V600E; cited from earlier work.

T2 sequence (P15056 2-766 V600E limits assumed): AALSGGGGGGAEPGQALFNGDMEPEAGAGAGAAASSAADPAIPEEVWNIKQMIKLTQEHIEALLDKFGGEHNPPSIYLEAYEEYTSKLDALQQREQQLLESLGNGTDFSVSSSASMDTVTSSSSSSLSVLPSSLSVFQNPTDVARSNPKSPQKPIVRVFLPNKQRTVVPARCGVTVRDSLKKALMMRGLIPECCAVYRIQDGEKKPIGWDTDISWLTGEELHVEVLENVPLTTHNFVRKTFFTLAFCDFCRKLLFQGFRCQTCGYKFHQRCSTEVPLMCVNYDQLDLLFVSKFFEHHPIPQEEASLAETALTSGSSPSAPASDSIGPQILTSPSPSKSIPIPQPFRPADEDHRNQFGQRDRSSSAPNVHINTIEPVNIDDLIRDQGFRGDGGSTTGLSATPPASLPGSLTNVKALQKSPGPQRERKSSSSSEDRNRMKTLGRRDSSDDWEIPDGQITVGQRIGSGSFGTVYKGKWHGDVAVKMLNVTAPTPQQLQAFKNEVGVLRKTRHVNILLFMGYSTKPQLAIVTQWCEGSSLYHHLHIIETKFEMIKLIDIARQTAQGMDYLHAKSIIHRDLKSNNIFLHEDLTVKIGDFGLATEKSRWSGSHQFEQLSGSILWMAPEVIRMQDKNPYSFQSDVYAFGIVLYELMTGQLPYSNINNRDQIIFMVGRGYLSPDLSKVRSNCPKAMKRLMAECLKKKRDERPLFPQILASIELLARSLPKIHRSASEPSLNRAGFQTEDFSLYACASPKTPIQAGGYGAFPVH
Chain of EGFR^T790M (P00533 25-1210 T790M): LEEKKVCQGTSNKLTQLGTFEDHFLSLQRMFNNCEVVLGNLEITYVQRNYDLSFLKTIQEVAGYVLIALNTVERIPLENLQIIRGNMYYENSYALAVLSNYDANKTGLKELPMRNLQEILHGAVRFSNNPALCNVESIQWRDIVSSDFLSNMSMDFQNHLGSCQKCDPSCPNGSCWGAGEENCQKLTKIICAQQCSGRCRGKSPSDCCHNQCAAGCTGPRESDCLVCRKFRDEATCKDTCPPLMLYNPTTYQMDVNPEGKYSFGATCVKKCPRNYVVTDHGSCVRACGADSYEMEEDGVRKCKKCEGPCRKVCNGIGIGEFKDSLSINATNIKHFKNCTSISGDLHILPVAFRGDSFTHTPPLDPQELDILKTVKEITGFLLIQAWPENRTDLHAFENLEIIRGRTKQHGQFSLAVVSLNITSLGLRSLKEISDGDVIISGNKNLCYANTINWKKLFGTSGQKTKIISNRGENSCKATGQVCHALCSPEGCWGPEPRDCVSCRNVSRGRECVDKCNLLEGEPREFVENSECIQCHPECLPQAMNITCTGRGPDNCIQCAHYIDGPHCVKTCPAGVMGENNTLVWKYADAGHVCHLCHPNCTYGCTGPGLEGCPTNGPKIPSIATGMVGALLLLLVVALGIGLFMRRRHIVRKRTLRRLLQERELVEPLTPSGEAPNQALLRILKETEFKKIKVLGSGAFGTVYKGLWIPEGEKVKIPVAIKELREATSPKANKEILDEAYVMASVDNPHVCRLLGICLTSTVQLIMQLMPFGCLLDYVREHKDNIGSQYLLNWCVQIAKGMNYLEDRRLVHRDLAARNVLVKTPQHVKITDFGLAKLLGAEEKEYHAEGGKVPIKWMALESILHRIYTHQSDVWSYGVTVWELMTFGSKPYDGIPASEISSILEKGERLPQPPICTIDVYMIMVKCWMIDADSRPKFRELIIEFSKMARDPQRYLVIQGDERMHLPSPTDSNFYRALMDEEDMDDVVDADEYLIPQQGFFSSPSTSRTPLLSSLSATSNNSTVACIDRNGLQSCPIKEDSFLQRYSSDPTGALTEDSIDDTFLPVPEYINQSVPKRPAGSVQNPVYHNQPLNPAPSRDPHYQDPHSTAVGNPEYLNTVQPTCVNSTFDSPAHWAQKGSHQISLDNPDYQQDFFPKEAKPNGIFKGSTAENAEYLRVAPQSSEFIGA

With `Cc1cccc(-n2c(SCc3nc(-c4ccc(Cl)cc4)no3)nc3ccccc3c2=O)c1` [Compound 9h, 2-((3-(4-Chlorophenyl)-1,2,4-oxadiazol-5-yl)methylthio)-3-m-tolylquinazolin-4(3H)-one], the melting point lay in the range of 178 to 180 °C. Besides, in series [1], the IC50 was found to be 31 ± 3 nM. Also, in [2], the IC50 came to 15 ± 2 nM. In addition, the half-maximal inhibitory concentration (IC50) in series [3] was 30 ± 3 nM. In series [4], this compound yielded a viability at 96 h, 50 µM of 89%. Also, the IC50 in series [5] is 29 ± 2 nM. Halving of growth in series [6] (GI50) required 30 nM. In addition, the 50% inhibitory concentration (IC50) in series [7] is 28 ± 2 nM. For the same compound, in [8], the half-maximal inhibitory concentration (IC50) turned out to be 72 ± 5 nM. In addition, in [9], the IC50 amounted to 57 ± 5 nM.
The compound `CCn1c(SCc2nc(-c3ccc(OC)cc3)no2)nc2ccccc2c1=O` [Compound 9l, 2-((3-(4-Methoxyphenyl)-1,2,4-oxadiazol-5-yl)methylthio)-3-ethylquinazolin-4(3H)-one] registered a melting point of 134 to 136 °C. Also, in series [1], the IC50 worked out at 40 ± 4 nM. In addition, the concentration for half-maximal inhibition (IC50) in series [3] turned out to be 37 ± 3 nM. The compound further gave a viability at 96 h, 50 µM in series [4] of 90%. Also, the IC50 in [5] was 38 ± 3 nM. In addition, growth in series [6] was halved (GI50) at 38 nM. Besides, in [7], the concentration for half-maximal inhibition (IC50) is 36 ± 3 nM. In addition, the half-maximal inhibitory concentration (IC50) in [8] was found to be 91 ± 7 nM. The concentration for half-maximal inhibition (IC50) in series [9] was 70 ± 5 nM.
For the compound `COc1cccc2c1C(=O)c1c(O)c3c(c(O)c1C2=O)C[C@@](O)(C(=O)CO)C[C@@H]3O[C@H]1C[C@H](N)[C@H](O)[C@H](C)O1` [Doxorubicin], in series [10], the concentration for 50% growth inhibition (GI50) is 1140 nM.
`CCn1c(SCc2nc(-c3ccc(Cl)cc3)no2)nc2ccccc2c1=O` [Compound 9k, 2-((3-(4-Chlorophenyl)-1,2,4-oxadiazol-5-yl)methylthio)-3-ethylquinazolin-4(3H)-one] returned a melting point of 118 to 120 °C. In addition, the half-maximal inhibitory concentration (IC50) in [1] is 35 ± 3 nM. In series [3], the IC50 was 34 ± 3 nM. The same compound showed a viability at 96 h, 50 µM in [4] of 93%. The 50% inhibitory concentration (IC50) in series [5] amounted to 34 ± 3 nM. Further, in series [6], it took 34 nM to inhibit growth by half (GI50). In addition, the IC50 in [7] stood at 32 ± 3 nM. For the same compound, in series [8], the IC50 worked out at 84 ± 6 nM. For the same compound, the 50% inhibitory concentration (IC50) in [9] came to 62 ± 5 nM.
As for `COc1cc2ncnc(Nc3cccc(NC(=O)Nc4ccc(Cl)c(C(F)(F)F)c4)c3)c2cc1OCCCN1CCOCC1` [I], in series [11], the “IC50 against EGFR” value is “nanomolar range”. Moreover, the “IC50 against wild-type BRAF” value in series [12] is listed as “nanomolar range”.
With `COc1ccc(-c2noc(CSc3nc4ccccc4c(=O)n3-c3ccccc3)n2)cc1` [Compound 9c, 2-((3-(4-Methoxyphenyl)-1,2,4-oxadiazol-5-yl)methylthio)-3-phenylquinazolin-4(3H)-one], the melting point lay within 186 to 188 °C. Besides, the half-inhibitory concentration (IC50) in [1] turned out to be 28 ± 3 nM. In series [2], this compound showed an IC50 of 11 ± 2 nM. In addition, the concentration for half-maximal inhibition (IC50) in series [3] is 25 ± 2 nM. Besides, in [4], the viability at 96 h, 50 µM worked out at 91%. For the same compound, the IC50 in series [5] was determined as 26 ± 2 nM. This compound also yielded a GI50 in [6] of 26 nM. Besides, the concentration for half-maximal inhibition (IC50) in series [7] worked out at 24 ± 2 nM. In addition, the IC50 in series [8] stood at 64 ± 5 nM. In addition, the IC50 in series [9] came out at 51 ± 5 nM.
As to `C=CCn1c(SCC(=O)Nc2cccc(C(=O)/C=C/c3ccc(OC)cc3)c2)nc2ccccc2c1=O` [IX], the GI50 in series [10] was 1160 nM. Further, the half-inhibitory concentration (IC50) in series [13] was 650 nM.

The term IC50 denotes the concentration at which inhibition is half-maximal. As a reminder, the viability is the share of living cells, or the viability signal relative to a control. A higher viability goes with less harm to the cells. The GI50 is the concentration at which growth is held to half of that of the control. What is called melting point is the temperature of the solid-liquid transition.
